Measurements taken from ChEMBL document CHEMBL2413072, “Synthesis and in vitro anticancer studies of novel C-2 arylidene congeners of lantadenes” (2013).

How the values were obtained:
Type in all cases: functional
SF-539 [1] = test: Growth inhibition of human SF539 cells assessed as cell growth at 10^-4 M by sulforhodamine B assay; conditions: read-out: Activity
HT-29 = test: Growth inhibition of human HT-29 cells assessed as growth inhibition at 10 uM by sulforhodamine B assay; conditions: read-out: GI
DU-145 [2] = test: Growth inhibition of human DU145 cells assessed as cell growth at 10 uM by sulforhodamine B assay; conditions: read-out: Activity
A498 = test: Growth inhibition of human A498 cells assessed as growth inhibition at 10 uM by sulforhodamine B assay; conditions: read-out: GI
CAKI-1 [3] = test: Growth inhibition of human CAKI-1 cells assessed as cell growth at 10^-8 M by sulforhodamine B assay; conditions: read-out: Activity
K562 = test: Growth inhibition of human K562 cells assessed as cell growth at 10^-8 M by sulforhodamine B assay; conditions: read-out: Activity
NCI-H460 = test: Growth inhibition of human NCI-H460 cells assessed as cell growth at 10 uM by sulforhodamine B assay; conditions: read-out: Activity
[4] = Growth inhibition of human EKVX cells assessed as growth inhibition at 10 uM by sulforhodamine B assay; conditions: read-out: GI
SF-268 = test: Growth inhibition of human SF268 cells assessed as cell growth at 10 uM by sulforhodamine B assay; conditions: read-out: Activity
RPMI-8226 = test: Growth inhibition of human RPMI8226 cells by sulforhodamine B assay
SK-MEL-2 [5] = test: Growth inhibition of human SK-MEL-2 cells by sulforhodamine B assay
OVCAR-5 = test: Growth inhibition of human OVCAR5 cells assessed as cell growth at 10 uM by sulforhodamine B assay; conditions: read-out: Activity
U-251 = test: Growth inhibition of human U251 cells assessed as cell growth at 10^-6 M by sulforhodamine B assay; conditions: read-out: Activity
CCRF-CEM [6] = test: Growth inhibition of human CCRF-CEM cells assessed as growth inhibition at 10 uM by sulforhodamine B assay; conditions: read-out: GI
ACHN = test: Growth inhibition of human ACHN cells assessed as cell growth at 10^-7 M by sulforhodamine B assay; conditions: read-out: Activity
HOP-92 [7] = test: Growth inhibition of human HOP92 cells assessed as cell growth at 10^-7 M by sulforhodamine B assay; conditions: read-out: Activity
RXF 393 [8] = test: Growth inhibition of human RXF393 cells assessed as cell growth at 10^-6 M by sulforhodamine B assay; conditions: read-out: Activity
CAKI-1 [9] = test: Growth inhibition of human CAKI-1 cells assessed as cell growth at 10 uM by sulforhodamine B assay; conditions: read-out: Activity
TK-10 [10] = test: Growth inhibition of human TK10 cells assessed as cell growth at 10^-8 M by sulforhodamine B assay; conditions: read-out: Activity
UO-31 = test: Growth inhibition of human UO31 cells assessed as cell growth at 10^-8 M by sulforhodamine B assay; conditions: read-out: Activity
NCI-H23 [11] = test: Growth inhibition of human NCI-H23 cells assessed as cell growth at 10^-7 M by sulforhodamine B assay; conditions: read-out: Activity
COLO 205 = test: Growth inhibition of human COLO205 cells by sulforhodamine B assay
MCF7 = test: Growth inhibition of human MCF7 cells assessed as cell growth at 10^-8 M by sulforhodamine B assay; conditions: read-out: Activity
[12] = Growth inhibition of human Hs 578T cells assessed as cell growth at 10^-8 M by sulforhodamine B assay; conditions: read-out: Activity
SF-539 [13] = test: Growth inhibition of human SF539 cells assessed as cell growth at 10^-8 M by sulforhodamine B assay; conditions: read-out: Activity
CCRF-CEM [14] = test: Growth inhibition of human CCRF-CEM cells assessed as cell growth at 10 uM by sulforhodamine B assay; conditions: read-out: Activity
SR [15] = test: Growth inhibition of human SR cells assessed as cell growth at 10^-6 M by sulforhodamine B assay; conditions: read-out: Activity
SK-MEL-2 [16] = test: Growth inhibition of human SK-MEL-2 cells assessed as cell growth at 10 uM by sulforhodamine B assay; conditions: read-out: Activity
SR [17] = test: Growth inhibition of human SR cells assessed as cell growth at 10^-8 M by sulforhodamine B assay; conditions: read-out: Activity
MOLT-4 = test: Growth inhibition of human MOLT4 cells assessed as cell growth at 10 uM by sulforhodamine B assay; conditions: read-out: Activity
SK-OV-3 = test: Growth inhibition of human SKOV3 cells assessed as growth inhibition at 10 uM by sulforhodamine B assay; conditions: read-out: GI
HOP-92 [18] = test: Growth inhibition of human HOP92 cells assessed as growth inhibition at 10 uM by sulforhodamine B assay; conditions: read-out: GI
HL-60(TB) = test: Growth inhibition of human HL-60(TB) cells assessed as growth inhibition at 10 uM by sulforhodamine B assay; conditions: read-out: GI
RXF 393 [19] = test: Growth inhibition of human RXF393 cells assessed as growth inhibition at 10 uM by sulforhodamine B assay; conditions: read-out: GI
[20] = Growth inhibition of human Hs 578T cells assessed as growth inhibition at 10 uM by sulforhodamine B assay; conditions: read-out: GI
SK-MEL-5 = test: Growth inhibition of human SK-MEL-5 cells assessed as cell growth at 10^-4 M by sulforhodamine B assay; conditions: read-out: Activity
SW-620 = test: Growth inhibition of human SW620 cells assessed as growth inhibition at 10 uM by sulforhodamine B assay; conditions: read-out: GI
IGROV-1 = test: Growth inhibition of human IGROV1 cells assessed as growth inhibition at 10 uM by sulforhodamine B assay; conditions: read-out: GI
SNB-19 = test: Growth inhibition of human SNB19 cells assessed as cell growth at 10 uM by sulforhodamine B assay; conditions: read-out: Activity
NCI-H23 [21] = test: Growth inhibition of human NCI-H23 cells assessed as cell growth at 10^-4 M by sulforhodamine B assay; conditions: read-out: Activity
DU-145 [22] = test: Growth inhibition of human DU145 cells assessed as cell growth at 10^-6 M by sulforhodamine B assay; conditions: read-out: Activity
M14 = test: Growth inhibition of human M14 cells assessed as cell growth at 10 uM by sulforhodamine B assay; conditions: read-out: Activity
A549 = test: Growth inhibition of human A549/ATCC cells assessed as cell growth at 10^-8 M by sulforhodamine B assay; conditions: read-out: Activity
NCI-H23 [23] = test: Growth inhibition of human NCI-H23 cells assessed as growth inhibition at 10 uM by sulforhodamine B assay; conditions: read-out: GI
TK-10 [24] = test: Growth inhibition of human TK10 cells assessed as cell growth at 10^-4 M by sulforhodamine B assay; conditions: read-out: Activity
KM12 = test: Growth inhibition of human KM12 cells assessed as cell growth at 10^-4 M by sulforhodamine B assay; conditions: read-out: Activity
TK-10 [25] = test: Growth inhibition of human TK10 cells assessed as growth inhibition at 10 uM by sulforhodamine B assay; conditions: read-out: GI
[26] = read-out: LC50 (the source's name)
[27] = read-out: pLC50 (the source's name) (converted)

CC1(C)C[C@@H](O)[C@]2(C(=O)O)CC[C@]3(C)C(=CC[C@@H]4[C@@]5(C)C/C(=C\C=C\c6ccccc6)C(=O)C(C)(C)[C@@H]5CC[C@]43C)[C@@H]2C1
growth at 100 µM (SF-539 [1]): -90% | inhibition of growth at 10 µM (HT-29): 48.3% | growth at 10 µM (DU-145 [2]): 71.2% | inhibition of growth at 10 µM (A498): < 10% | growth at 0.01 µM (CAKI-1 [3]): 94% | growth at 0.01 µM (K562): 114% | growth at 10 µM (NCI-H460): 45.8% | inhibition of growth at 10 µM [4]: 60.6% | growth at 10 µM (SF-268): 70.7% | GI50 (RPMI-8226; read-out: GI50): 2.58 µM | CC50 (RPMI-8226; [26]): > 100 µM | TGI (RPMI-8226; read-out: TGI): 7.96 µM | GI50 (RPMI-8226; read-out: pGI50 (converted)): 2.57 µM | CC50 (RPMI-8226; [27]): > 100 µM | TGI (RPMI-8226; read-out: pTGI (converted)): 7.94 µM | GI50 (SK-MEL-2 [5]; read-out: GI50): 2.35 µM | CC50 (SK-MEL-2 [5]; [26]): 26.3 µM | TGI (SK-MEL-2 [5]; read-out: TGI): 5.57 µM | GI50 (SK-MEL-2 [5]; read-out: pGI50 (converted)): 2.34 µM | CC50 (SK-MEL-2 [5]; [27]): 26.3 µM | TGI (SK-MEL-2 [5]; read-out: pTGI (converted)): 5.62 µM | growth at 10 µM (OVCAR-5): 104% | growth at 1 µM (U-251): 85% | inhibition of growth at 10 µM (CCRF-CEM [6]): 80.1% | growth at 0.1 µM (ACHN): 98% | growth at 0.1 µM (HOP-92 [7]): 90% | growth at 1 µM (RXF 393 [8]): 96% | growth at 10 µM (CAKI-1 [9]): 43% | growth at 0.01 µM (TK-10 [10]): 98% | growth at 0.01 µM (UO-31): 88% | growth at 0.1 µM (NCI-H23 [11]): 95% | GI50 (COLO 205; read-out: GI50): 1.97 µM | LC50 (COLO 205; read-out: LC50): 6.36 µM | TGI (COLO 205; read-out: TGI): 3.54 µM | GI50 (COLO 205; read-out: pGI50 (converted)): 2 µM | LC50 (COLO 205; read-out: pLC50 (converted)): 6.31 µM | TGI (COLO 205; read-out: pTGI (converted)): 3.55 µM | growth at 0.01 µM (MCF7): 95% | growth at 0.01 µM [12]: 97% | growth at 0.01 µM (SF-539 [13]): 93% | growth at 10 µM (CCRF-CEM [14]): 19.9% | growth at 1 µM (SR [15]): 94% | growth at 10 µM (SK-MEL-2 [16]): 64.6% | growth at 0.01 µM (SR [17]): 107% | growth at 10 µM (MOLT-4): 44.4% | inhibition of growth at 10 µM (SK-OV-3): 14.3% | inhibition of growth at 10 µM (HOP-92 [18]): 50.8% | inhibition of growth at 10 µM (HL-60(TB)): 61.2% | inhibition of growth at 10 µM (RXF 393 [19]): 15.9% | inhibition of growth at 10 µM [20]: 41.6% | growth at 100 µM (SK-MEL-5): -99% | inhibition of growth at 10 µM (SW-620): 44.2% | inhibition of growth at 10 µM (IGROV-1): 39.2% | growth at 10 µM (SNB-19): 73.4% | growth at 100 µM (NCI-H23 [21]): -83% | growth at 1 µM (DU-145 [22]): 101% | growth at 10 µM (M14): 72.9% | growth at 0.01 µM (A549): 98% | inhibition of growth at 10 µM (NCI-H23 [23]): 40.3% | growth at 100 µM (TK-10 [24]): -86% | growth at 100 µM (KM12): -76% | inhibition of growth at 10 µM (TK-10 [25]): 11.7%

COc1cc(/C=C2\C[C@]3(C)[C@H]4CC=C5[C@@H]6CC(C)(C)C[C@@H](O)[C@]6(C(=O)O)CC[C@@]5(C)[C@]4(C)CC[C@H]3C(C)(C)C2=O)ccc1O
inhibition of growth at 10 µM (HT-29): 14.5% | growth at 10 µM (DU-145 [2]): 107% | inhibition of growth at 10 µM (A498): < 10% | growth at 10 µM (NCI-H460): 102% | inhibition of growth at 10 µM [4]: 11.5% | growth at 10 µM (SF-268): 109% | growth at 10 µM (OVCAR-5): 105% | inhibition of growth at 10 µM (CCRF-CEM [6]): 18% | growth at 10 µM (CAKI-1 [9]): 78.8% | growth at 10 µM (CCRF-CEM [14]): 82% | growth at 10 µM (SK-MEL-2 [16]): 100% | growth at 10 µM (MOLT-4): 63.3% | inhibition of growth at 10 µM (SK-OV-3): < 10% | inhibition of growth at 10 µM (HOP-92 [18]): 29.1% | inhibition of growth at 10 µM (HL-60(TB)): 28.9% | inhibition of growth at 10 µM (RXF 393 [19]): < 10% | inhibition of growth at 10 µM [20]: < 10% | inhibition of growth at 10 µM (SW-620): < 10% | inhibition of growth at 10 µM (IGROV-1): < 10% | growth at 10 µM (SNB-19): 97% | growth at 10 µM (M14): 103% | inhibition of growth at 10 µM (NCI-H23 [23]): 15% | inhibition of growth at 10 µM (TK-10 [25]): < 10%
